Laboratory results taken from PMC9262865 (Chembiochem, 2022).

What was measured:
[1] = biological target: T1, tyrosine phenol-lyase (M379A TPL) (Citrobacter freundii, UniProt P31013, M379A); assay: LDH-coupled steady-state kinetics of purified enzyme; type: biochemical
[2] = biological target: T1, tyrosine phenol-lyase (M379A TPL); assay: X-ray crystal structure; type: binding
[3] = biological target: tyrosine phenol-lyase (wild type TPL) (Citrobacter freundii, UniProt P31013); assay: absorbance titration at […] nm; type: binding

In the case of N[C@@H](Cc1ccc(O)c(F)c1)C(=O)O [compound 3, 3-F-L-tyrosine], the “M379A TPL / k cat/K M, M^-1 s^-1” value [1] is reported as 774 M^-1 s^-1 (kcat/KM).
With CSCC[C@H](N)C(=O)O [L-methionine] the Kd [2] was 1.74 mM and the Kd [3] was 0.79 mM.
For N[C@@H](Cc1ccc(O)cc1)C(=O)O [compound 1, L-tyrosine], the “M379A TPL / k cat/K M, M^-1 s^-1” value [1] was 148 M^-1 s^-1 (kcat/KM).
